Here are results for two compounds from patent US20180064679A1, “METHOD FOR TREATING CANCER BASED ON LEVEL OF GLUCOCORTICOID RECEPTOR” (Abraxis BioScience, LLC, priority 2015, published 2018).

The structures appear in SMILES notation.

In one assay the test system is H1755 cells. Put plainly: caspase-3/7 activation (apoptosis) assay in H1755 cells. It counts as cell-based, human. How it is done: H1755 cells were cultured using EMEM with 10% FBS. FBS was charcoal-filtered to remove endogenous steroids. Cells were plated at 5000 cell per well and treated 24 hours after plating. H1755 cell samples treated with DEX received DEX 30 minutes prior to administration of PTX or a vehicle control. Vehicle controls are the same as those discussed in Example 1. Additionally, during PTX and/or DEX drug dosing, a caspase-3/7 activation reagent was added to the cell samples, for example, Caspase-3/7 reagent (Essen BioScience, Ann Arbor, Mich; Catalog No. 4440). Specifically, the CELLPLAYER™ Kinetic Caspase-3/7 activation assay reagents (Essen BioScience, Ann Arbor, Mich.) were used to detect caspase-3/7 activation.
At time points following PTX administration the activation of the caspase-3/7 reagent was measured with, for example, an INCUCYTE™ FLR (Essen BioScience, Ann Arbor, Mich.). […] Apoptotic or apoptosing H1755 cells (caspase-3/7 positive cells) are indicated in white, as measured by caspase-3/7 activation (FIGS. 3A-3D).
To determine the EC50 of DEX in H1755 cells, a series of PTX concentrations were evaluated for caspase-3/7 activation across a series of DEX concentrations. […]
H1755 cell samples were treated with 0, 0.43, 1.3, 4.12, 12.3, 37, 111, 333, 1000, or 3000 nM PTX. […] At time points following drug administration, caspase-3/7 activation was measured as discussed in Example 1.

In another assay the test system is H522 cell line. Put plainly: caspase-3/7 activation assay in H522 cell line. As to conditions: 100 nM DEX, 100 nM PTX, H522 (minimal level of GR). It counts as cell-based.
The test system of a further assay is H23 cells. Description: caspase-3/7 activation assay in H23 cells. Format: cell-based. As to conditions: H23 cells (low level of GR expression), data not shown.
Another assay relates to MKP-1. Description: qRT-PCR of MKP-1 mRNA in H1755 cells. It counts as cell-based, human. The following applies: 100 nM DEX, H1755 cells, 1, 4 or 24 hours. How it is done:
(§1) H1755 and H522 cells were cultured using RPMI media that was charcoal-filtered media to remove steroids. Cell samples received one of the following treatments: vehicle control (0.1% EtOH for DEX vehicle control or 0.1% DMSO for PTX vehicle control), 100 nM DEX, 100 nM PTX, or 100 nM DEX and 100 nM PTX. At 1 hour, 4 hours, or 24 hours after drug administration, cell samples were harvested and mRNA levels of MKP-1 and SGK1 were measured via quantitative real-time polymerase chain reaction (qRT-PGR). Western blot analysis of GR, phosphorylated JNK1 (P-JNK1; phosphorylation at Thr 183 and Tyr 185), JNK1, phosphorylated c-Jun (P c-Jun; phosphorylation at Ser 73 or Ser 63), c-Jun, phosphorylated MKP1 (pMKP1; phosphorylated at Ser 359), SG1, phosphorylated MCL-1 (pMCL-1; phosphorylated at Ser 64), MCL-1, phosphorylated BCL2 (pBC1,2; phosphorylated at Ser 70), BCL2, BCLXL, cleaved caspase-3, and GAPDH (for purposes of normalization) was performed following treatment with either a vehicle control (0.1% EtOH for DEX vehicle control or 0.1% DMSO for PTX vehicle control), 100 nM DEX, 100 nM PTX, or 100 nM DEX and 100 nM PTX.

Another assay has as its system SGK1. Put plainly: qRT-PCR of SGK1 mRNA in H1755 cells. As to conditions: 100 nM DEX, H1755 cells, 1, 4 or 24 hours. It counts as cell-based, human. The method, then: as §1
A further assay concerns MAP TAU. Description: Western blot of MAP TAU in H1755 cells. Format: cell-based, human. The method, then: H1755 and H522 cells were analyzed by Western blot at 4 and 24 hours following administration of a vehicle control (0.1% EtOH for DEX vehicle control or 0.1% DMSO for PTX vehicle control), 100 nM DEX, 100 nM PTX, or 100 nM DEX and 100 nM PTX.
The test system of another assay is MDA-MB-231 cells. Description: caspase-3/7 activation (apoptosis) assay in MDA-MB-231 cells. It counts as cell-based. As to conditions: PTX 0-3000 nM alone, roughly 34.5 hours. How it is done:
MDA-MB-231 cells were cultured using Eagle's minimum essential medium (EMEM) with 10% fetal bovine serum (FBS). FBS was charcoal-filtered to remove endogenous steroids. Cells were plated at 5000 cell per well and treated 24 hours after plating. PTX doses of 3000, 1000, 333.3, 111.1, 37.0, 12.3, 4.1, 1.4, 0.5, and 0 nM were evaluated. MDA-MB-231 cell samples treated with DEX received 100 nM DEX 30 minutes prior to administration of PTX or a vehicle control. The vehicle control for DEX was 0.1% ethanol, final concentration after addition. The vehicle control for PTX was 0.1% DMSO, final concentration after addition. Additionally, during PTX and/or DEX drug dosing, a caspase-3/7 activation reagent was added to the cell samples, for example, Caspase-3/7 reagent (Essen BioScience, Ann Arbor, Mich.; Catalog No. 4440). Specifically, the CELLPLAYER™ Kinetic Caspase-3/7 activation assay reagents (Essen BioScience, Ann Arbor, Mich.) were used to detect caspase-3/7 activation.
At time points following PTX administration (e.g., roughly every 3 hours) the activation of the caspase-3/7 reagent was measured with, for example, an INCUCYTE™ FLR (Essen BioScience, Ann Arbor, Mich.). Activation of caspase-3/7 is indicative of an apoptotic and/or an apoptosing cell. All concentrations of PTX, both with and without DEX, were evaluated in triplicate.

The subject of assay [1] is phosphorylated c-Jun (Ser 73). Put plainly: Western blot of phosphorylated c-Jun (Ser 73) in H1755 cells. Format: cell-based, human. The following applies: 100 nM PTX, 4 hours. How it is done: (§2) H1755 and H522 cells were cultured using RPMI media that was charcoal-filtered media to remove steroids. Cell samples received one of the following treatments: vehicle control (0.1% EtOH for DEX vehicle control or 0.1% DMSO for PTX vehicle control), 100 nM DEX, 100 nM PTX, or 100 nM DEX and 100 nM PTX. At 1 hour, 4 hours, or 24 hours after drug administration, cell samples were harvested and mRNA levels of MKP-1 and SGK1 were measured via quantitative real-time polymerase chain reaction (qRT-PGR). […]
(§3) In addition to measuring MKP-1 and SGK1 mRNA expression, a series of proteins (and their phosphorylation status) involved in stress pathway signaling were evaluated via Western blot to measure changes following treatment with DEX, PTX, or DEX and PTX. JNK1 was measured after 2 hours of treatment, P c-Jun, c-Jun, pMPK1, and SGK1 were measured after 4 hours of treatment, and other measurements were after 24 hours of treatment. […]

Assay [2] deals with phosphorylated c-Jun (Ser 73). Description: Western blot of phosphorylated c-Jun (Ser 73) in H522 cells. Format: cell-based. As to conditions: 100 nM PTX, 4 hours. How it is done: as §2, §3
For orientation: In western blotting, separated proteins are transferred to a membrane and probed.

The subject of another assay is MCL1. Description: Western blot of MCL1 and phosphorylated MCL1. Format: cell-based. The following applies: 100 nM PTX, 24 hours, H1755 and H522 cells. The method, then: as §1
(§4) Furthermore, pro-survival markers, MCL1, BCL2, and BCLXL, were measured by Western blot to evaluate changes following treatment with DEX, PTX, or DEX and PTX. MCL1, BCL2, and BCLXL inhibit apoptosis by blocking activation of caspases, such as, caspase-3. […]

For the next assay, the system named is phosphorylated BCL2. Put plainly: Western blot of phosphorylated BCL2 in H1755 cells. Format: cell-based, human. The following applies: 100 nM PTX, 24 hours. How it is done:
as §1, §4

For assay [3], the system named is BCLXL. Description: Western blot of BCLXL in H1755 cells. Format: cell-based, human. As to conditions: 100 nM PTX, 24 hours. How it is done: as §1, §4
The test system of assay [4] is BCLXL. Put plainly: Western blot of BCLXL in H522 cells. Format: cell-based. The following applies: 100 nM PTX, 24 hours. The method, then: as §1, §4
The test system of assay [5] is cleaved caspase-3. Description: Western blot of cleaved caspase-3 in H1755 cells. It counts as cell-based, human. As to conditions: 100 nM PTX, 24 hours. How it is done: as §1, §4
The test system of assay [6] is cleaved caspase-3. Description: Western blot of cleaved caspase-3 in H522 cells. As to conditions: 100 nM PTX, 24 hours. Format: cell-based. The method, then:
as §1, §4

Assay [7] concerns ERK, phosphorylated ERK, p38, and phosphorylated p38. Put plainly: Western blot of MAPK pathway proteins in H1755 and H522 cells. Format: cell-based. As to conditions: 100 nM DEX and/or 100 nM PTX, 4 hours. How it is done: H1755 and H522 cells were analyzed by Western blot at 4 hours following administration of a vehicle control (0.1% EtOH for DEX vehicle control or 0.1% DMSO for PTX vehicle control), 100 nM DEX, 100 nM PTX, or 100 nM DEX and 100 nM PTX.

In turn, `C[C@@H]1C[C@H]2[C@@H]3CCC4=CC(=O)C=C[C@]4(C)[C@@]3(F)[C@@H](O)C[C@]2(C)[C@@]1(O)C(=O)CO` [DEX, dexamethasone] showed an EC50 in the assay on H1755 cells (Homo sapiens, NCI-H1755, caspase-3/7 activation, series of PTX and DEX concentrations) of 4 nM. Further, in the assay with H522 cell line, the “DEX antagonism of PTX-induced apoptosis” value is listed as “no effect”. Also, the “DEX effect on PTX-induced apoptosis” value with H23 cells is “no effect”. In the assay with MKP-1, the “up-regulation of MKP-1 mRNA by DEX, maximum” value came out at 8 fold. The “up-regulation of SGK1 mRNA by DEX, maximum” value with SGK1 was determined as 2.5 fold. Further, the “increase of MAP TAU in cells treated with DEX and PTX” value with MAP TAU (100 nM DEX and 100 nM PTX, 24 hours) amounted to 2 fold. The “DEX-induced upregulation of MAP TAU” value in the assay on MAP TAU (100 nM DEX, 24 hours after drug administration) is on record as 5 fold.
In the case of `CC(=O)O[C@H]1C(=O)[C@@]2(C)[C@H]([C@H](OC(=O)c3ccccc3)[C@]3(O)C[C@H](OC(=O)[C@H](O)[C@@H](NC(=O)c4ccccc4)c4ccccc4)C(C)=C1C3(C)C)[C@]1(OC(C)=O)CO[C@@H]1C[C@@H]2O` [PTX, paclitaxel], in the assay with MDA-MB-231 cells, the “level of apoptosis (as measured by level of caspase-3/7 activation)” value is on record as “higher concentrations of PTX induced increased levels of apoptosis”. Moreover, in the assay with H1755 cells (111 nM PTX), the “level of apoptosis (caspase-3/7 activation), PTX alone” value was “marked increase in apoptosis”. The “phosphorylation of c-Jun on Ser 73 following PTX treatment” value in assay [1] and in assay [2] was “increased” in each case. In the assay on MCL1, the “phosphorylation of MCL1” value is “up-regulated”. For the same compound, in the assay with MCL1, the “total expression of MCL1” value is “decreasing”. In addition, in the assay on phosphorylated BCL2, the “phosphorylation of BCL2” value was “up-regulated”. Further, the results for the BCLXL expression result in the assay on BCLXL [3] and with BCLXL [4] were “down-regulated” and “not H522 cells”, respectively. Also, the “expression of cleaved caspase-3” value with cleaved caspase-3 [5] and in the assay on cleaved caspase-3 [6] was “increases” in each case. In addition, the “change of MAPK pathway proteins and MAPK signaling mechanisms” value in [7] is reported as “minimally changed”.

By EC50 is commonly meant the concentration needed to bring the measured effect to its halfway point.
